Laboratory results reported in patent US11965126B2, “Flame retardant for thermosetting resin including aromatic phosphoric acid ester, thermosetting resin composition including same, and cured material and application of same” (priority 2018, dated 2024).
Like-named read-outs stand apart in the source and are kept apart here.

Experiment: Solvent solubility of flame retardants
Format: physicochemical
Settings: for Solvent solubility compared with FR4 and FR5: comparison with traditionally-known phosphorus-type flame retardants FR4 and FR5
Procedure: 5 g of a flame retardant was added repeatedly to 100 mL of the following respective solvents at a temperature of 20° C. until the undissolved flame retardant was detected; and a largest amount of the flame retardant dissolved was measured. This largest amount was considered to be solvent solubility. • Solvents: toluene, methyl ethyl ketone (MEK), and propylene glycol monomethyl ether (PM) Materials for Synthesizing Aromatic Phosphoric Acid Esters
Flame retardants FR1 to FR4 as the flame retardants for thermosetting resin were evaluated for solvent solubility by the above method.

[1] = methyl ethyl ketone, 20° C., largest amount dissolved, added in 5 g portions
[2] = propylene glycol monomethyl ether, 20° C., largest amount dissolved, added in 5 g portions
[3] = toluene, 20° C., largest amount dissolved, added in 5 g portions

| Compound | Solvent solubility compared with FR4 and FR5 | Solvent solubility, MEK [1] | Solvent solubility, PM [2] | Solvent solubility, Toluene [3] | Solvent solubility, MEK | Solvent solubility, PM | Solvent solubility, Toluene |
| --- | --- | --- | --- | --- | --- | --- | --- |
| Cc1cccc(C)c1OP(=O)(Oc1ccc(C2(c3ccc(OP(=O)(Oc4c(C)cccc4C)Oc4c(C)cccc4C)cc3)CC(C)CC(C)(C)C2)cc1)Oc1c(C)cccc1C (centres unmarked) [FR1] | superior in solvent solubility | 135 g/100 mL | 85 g/100 mL | 140 g/100 mL |  |  |  |
| Cc1cccc(C)c1OP(=O)(Oc1ccc(C2(c3ccc(OP(=O)(Oc4c(C)cccc4C)Oc4c(C)cccc4C)cc3)CCCCCCCCCCC2)cc1)Oc1c(C)cccc1C [FR2] | superior in solvent solubility | 50 g/100 mL | 10 g/100 mL | 130 g/100 mL |  |  |  |
| Cc1cccc(C)c1OP(=O)(Oc1cccc(OP(=O)(Oc2c(C)cccc2C)Oc2c(C)cccc2C)c1)Oc1c(C)cccc1C [FR3, 1,3-phenylenebis(di-2,6-xylyl phosphate), reference compound] |  |  |  |  | 55 g/100 mL | 10 g/100 mL | 75 g/100 mL |
| O=[PH]1Oc2ccccc2-c2ccccc21 (centres unmarked) [FR5, 9,10-dihydro-9-oxa-10-phosphaphenanthrene-10-oxide, reference compound] |  | 5 g/100 mL | 15 g/100 mL | <5 g/100 mL |  |  |  |
